From patent US8129367B2, “Compounds for the treatment of Hepatitis C” (Bristol-Myers Squibb Company, priority 2007, dated 2012) come the findings set out here.

Each structure is given as a SMILES string.

The subject of assay [1] is HCV replicon cells. Put plainly: HCV replicon FRET / luciferase assay. The assay is classed as cell-based. The note with it: Hepatitis C virus; 50% reduction in FRET or luciferase activity in HCV replicon cells. How it is done: FRET Assay Preparation. The HCV FRET screening assay was performed in 96-well cell culture plates. The FRET peptide (Anaspec, Inc.) (Taliani et al., Anal. Biochem. 1996, 240, 60-67) contains a fluorescence donor, EDANS, near one end of the peptide and an acceptor, DABCYL, near the other end. The fluorescence of the peptide is quenched by […] resonance energy transfer (RET) between the donor and the acceptor, but as the NS3 protease cleaves the peptide the products are released from RET quenching and the fluorescence of the donor becomes apparent. The assay reagent was made as follows: 5× cell Luciferase cell culture lysis reagent from Promega (#E153A) diluted to 1× with dH2O, NaCl added to 150 mM final, the FRET peptide diluted to 20 μM final from a 2 mM stock.
To prepare plates, HCV replicon cells, with or without a Renilla luciferase reporter gene, were trypsinized and plated in a 96-well plate with titrated test compounds added in columns 3 through 12; columns 1 and 2 contained a control compound (HCV control inhibitor), and the bottom row contained cells with DMSO only. The plates were then placed in a CO2 incubator at 37° C.
Assays. Subsequent to addition of the test compounds described above (FRET Assay Preparation), at various times the plate was removed and Alamar blue solution (Trek Diagnostics, #00-100) was added to measure cellular toxicity. After reading in a Cytoflour 4000 instrument (PE Biosystems), plates were rinsed with PBS and then used for FRET assay by the addition of 30 ul of the FRET peptide assay reagent described above (FRET Assay Preparation) per well. The plate was then placed into the Cytoflour 4000 instrument which had been set to 340 excite/490 emission, automatic mode for up to 20 cycles and the plate read in a kinetic mode. Typically, the signal to noise using an endpoint analysis after the reads was at least three-fold. Alternatively, after Alamar blue reading, plates were rinsed with PBS, then used for luciferase assay using the Promega Dual-Glo Luciferase Assay System or the Promega EnduRen Live Cell Substrate assay.
Compound analysis was performed by quantification of the relative HCV replicon inhibition and the relative cytotoxicity values. To calculate cytoxicity values, the average Alamar Blue fluorescence signals from the control wells were set as 100% non-toxic. The individual signals in each of the compound test wells were then divided by the average control signal and multiplied by 100% to determine […]. To calculate the HCV replicon inhibition values, an average background value was obtained from the two wells containing the highest amount of HCV control inhibitor at the end of the assay period. These numbers were similar to those obtained from naïve Huh-7 cells. The background numbers were then subtracted from the average signal obtained from the control wells and this number was used as 100% activity. The individual signals in each of the compound test wells were then divided by the averaged control values after background subtraction and multiplied by 100% to determine percent activity. EC50 values were calculated as the concentration which caused a 50% reduction in FRET or luciferase activity. The two numbers generated for the compound plate, percent cytoxicity and percent activity, were used to determine compounds of interest for further analysis.
Background: In antiviral work, replicon cells carry a viral genome segment that copies itself.

The target of assay [2] is T1, HCV NS5B (Hepatitis C virus genotype 1b, UniProt Q9WMX2).
T1 construct: The protein was expressed with an 18 amino acid C-terminal truncation to enhance the solubility; made in house; host or cells: E. coli BL21(DE3)
Put plainly: HCV NS5B RdRp enzyme assay. The assay is classed as biochemical. The conditions noted are these: HCV NS5B RdRp genotype 1b enzyme. Here is the method: HCV NS5B RdRp cloning, expression, and purification. The cDNA encoding the NS5B protein of HCV, genotype 1b, was cloned into the pET21a expression vector. The protein was expressed with an 18 amino acid C-terminal truncation to enhance the solubility. The E. coli competent cell line BL21(DE3) was used for expression of the protein. Cultures were grown at 37° C. for ˜4 hours until the cultures reached an optical density of 2.0 at 600 nm. The cultures were cooled to 20° C. and induced with 1 mM IPTG. Fresh ampicillin was added to a final concentration of 50 μg/ml and the cells were grown overnight at 20° C.
Cell pellets (3 L) were lysed for purification to yield 15-24 mgs of purified NS5B. The lysis buffer consisted of 20 mM Tris-HCl, pH 7.4, 500 mM NaCl, 0.5% triton X-100, 1 mM DTT, 1 mM EDTA, 20% glycerol, 0.5 mg/ml lysozyme, 10 mM MgCl2, 15 ug/ml deoxyribonuclease I, and Complete™ protease inhibitor tablets (Roche). After addition of the lysis buffer, frozen cell pellets were resuspended using a tissue homogenizer. To reduce the viscosity of the sample, aliquots of the lysate were sonicated on ice using a microtip attached to a Branson sonicator. The sonicated lysate was centrifuged at 100,000×g for 1 hr at 4° C. and filtered through a 0.2 μm filter unit (Corning).
The protein was purified using two sequential chromatography steps: Heparin sepharose CL-6B and polyU sepharose 4B (Pharmacia). The chromatography buffers were identical to the lysis buffer but contained no lysozyme, deoxyribonuclease I, MgCl2 or protease inhibitor and the NaCl concentration of the buffer was adjusted according to the requirements for charging the protein onto the column. Each column was eluted with a NaCl gradient which varied in length from 5-50 column volumes depending on the column type. After the final chromatography step, the resulting purity of the enzyme is >90% based on SDS-PAGE analysis. The enzyme was aliquoted and stored at −80° C.
Standard HCV NS5B RdRp enzyme assay. HCV RdRp genotype 1b assays were run in a final volume of 60 μl in 96 well plates (Corning 3600). The assay buffer is composed of 20 mM Hepes, pH 7.5, 2.5 mM KCl, 2.5 mM MgCl2, 1 mM DTT, 1.6 U RNAse inhibitor (Promega N2515), 0.01 mg/ml BSA (Sigma B6917), and 2% glycerol. All compounds were serially diluted (3-fold) in DMSO and diluted further in water such that the final concentration of DMSO in the assay was 2%. HCV RdRp genotype 1b enzyme was used at a final concentration of 28 nM. A polyA template was used at 6 nM, and a biotinylated oligo-dT12 primer was used at 180 nM final concentration. Template was obtained commercially (Amersham 27-4110). Biotinylated primer was prepared by Sigma Genosys. 3H-UTP was used at 0.6 μCi (0.29 μM total UTP). Reactions were initiated by the addition of enzyme, incubated at 30° C. for 60 min, and stopped by adding 25 μl of 50 mM EDTA containing SPA beads (4 μg/μl, Amersham RPNQ 0007). Plates were read on a Packard Top Count NXT after >1 hr incubation at room temperature.
Modified HCV NS5B RdRp enzyme assay. A modified enzyme assay was performed essentially as described for the standard enzyme assay except for the following: The biotinylated oligo dT12 primer was precaptured on streptavidin-coated SPA beads by mixing primer and beads in assay buffer and incubating at room temperature for one hour. Unbound primer was removed after centrifugation. The primer-bound beads were resuspended in 20 mM Hepes buffer, pH 7.5 and used in the assay at final concentrations of 20 nM primer and 0.67 μg/μl beads. Order of addition in the assay: enzyme (1.75 nM) was added to diluted compound followed by the addition of a mixture of template (0.36 nM), 3H-UTP (0.6 μCi, 0.29 μM), and primer-bound beads, to initiate the reaction; concentrations given are final. Reactions were allowed to proceed for 4 hours at 30° C.
IC50 values for compounds were determined using seven different [I]. […]

For orientation: EC50 means the concentration needed to bring the measured effect to its halfway point. For orientation: IC50 means the concentration at which inhibition is half-maximal. The low end stands for inhibition by little substance, the high end for a need for much substance.

T1 sequence (Q9WMX2 2420-2992): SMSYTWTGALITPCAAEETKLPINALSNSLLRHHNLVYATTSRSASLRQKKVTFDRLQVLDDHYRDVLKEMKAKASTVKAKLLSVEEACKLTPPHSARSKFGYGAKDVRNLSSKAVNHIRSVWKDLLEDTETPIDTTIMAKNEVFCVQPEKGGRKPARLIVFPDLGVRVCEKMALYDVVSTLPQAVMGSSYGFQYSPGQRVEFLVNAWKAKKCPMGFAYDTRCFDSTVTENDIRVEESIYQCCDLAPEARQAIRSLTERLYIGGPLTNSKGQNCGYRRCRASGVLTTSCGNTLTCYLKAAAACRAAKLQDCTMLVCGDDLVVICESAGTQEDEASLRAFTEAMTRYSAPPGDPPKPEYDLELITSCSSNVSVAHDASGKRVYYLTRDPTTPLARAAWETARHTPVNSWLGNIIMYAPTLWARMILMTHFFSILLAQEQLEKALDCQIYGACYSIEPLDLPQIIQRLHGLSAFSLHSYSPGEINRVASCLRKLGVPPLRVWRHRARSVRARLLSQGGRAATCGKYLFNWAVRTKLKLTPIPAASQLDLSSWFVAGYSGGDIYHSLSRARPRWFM

For `CCC1(S(=O)(=O)NC(=O)c2ccc3c(C4CCCCC4)c4n(c3c2)CC2(C(=O)N3C5CCC3CN(C)C5)CC2c2cc(OC)ccc2-4)CC1` (stereo not shown), in assay [1], the 50% effective concentration (EC50) lay within 4.2 to 500 nM. The IC50 in assay [2] was in the range of 4.2 to 500 nM.
Take `COc1ccc2c(c1)C1CC1(C(=O)N1C3CCC1CN(C)C3)Cn1c-2c(C2CCCCC2)c2ccc(C(=O)NS(=O)(=O)C3(CC4CC4)CC3)cc21` (stereo not shown): the EC50 in assay [1] lay in the range of 4.2 to 500 nM. The compound further displayed a concentration for half-maximal inhibition (IC50) in assay [2] of 4.2 to 500 nM.
`COc1ccc2c(c1)C1CC1(C(=O)N1C3CCC1CN(C)C3)Cn1c-2c(C2CCCCC2)c2ccc(C(=O)NS(=O)(=O)c3cccc4cccnc34)cc21` (stereo not shown) came in with an EC50 in assay [1] of 4.2 to 500 nM. Besides, in assay [2], the IC50 fell in the range of 4.2 to 500 nM.
In turn, `COCCS(=O)(=O)NC(=O)c1ccc2c(C3CCCCC3)c3n(c2c1)C[C@@]1(C(=O)N2C4CCC2CN(C)C4)C[C@H]1c1cc(OC)ccc1-3` yielded a concentration for a half-maximal effect (EC50) in assay [1] of 4.2 to 500 nM. The compound further returned an IC50 in assay [2] of 4.2 to 500 nM.
Compound `COc1ccc2c(c1)[C@@H]1C[C@]1(C(=O)N1C3CCC1CN(C)C3)Cn1c-2c(C2CCCCC2)c2ccc(C(=O)NS(=O)(=O)CC3CCCO3)cc21` (stereo partly shown) returned an EC50 in assay [1] of 4.2 to 500 nM. Also, the IC50 in assay [2] was in the range of 4.2 to 500 nM.
`COc1ccc2c(c1)C1CC1(C(=O)N1C3CCC1CN(C)C3)Cn1c-2c(C2CCCCC2)c2ccc(C(=O)NS(=O)(=O)Cc3ccccn3)cc21` (stereo not shown): the concentration giving a half-maximal response (EC50) in assay [1] lay within 4.2 to 500 nM. The same compound had an IC50 in assay [2] of 4.2 to 500 nM.
In assay [1], `COc1ccc2c(c1)C1CC1(C(=O)N1C3CCC1CN(C)C3)Cn1c-2c(C2CCCCC2)c2ccc(C(=O)NS(=O)(=O)Cc3cccc(Cl)c3)cc21` (stereo not shown) displayed an EC50 of 4.2 to 500 nM. This compound also displayed an IC50 in assay [2] of 4.2 to 500 nM.
In turn, `COc1ccc2c(c1)C1CC1(C(=O)N1C3CCC1CN(C)C3)Cn1c-2c(C2CCCCC2)c2ccc(C(=O)NS(=O)(=O)Cc3cc(Cl)cc(Cl)c3)cc21` (stereo not shown) returned an EC50 in assay [1] of 4.2 to 500 nM. Moreover, the 50% inhibitory concentration (IC50) in assay [2] lay in the range of 4.2 to 500 nM.
Take `COc1ccc2c(c1)C1CC1(C(=O)N1C3CCC1CN(C)C3)Cn1c-2c(C2CCCCC2)c2ccc(C(=O)NS(=O)(=O)c3sc(C)nc3C)cc21` (stereo not shown): in assay [1], the concentration for a half-maximal effect (EC50) lay in the range of 4.2 to 500 nM. Moreover, in assay [2], the IC50 was in the range of 4.2 to 500 nM.
As to `COc1ccc2c(c1)C1CC1(C(=O)N1C3CCC1CN(C)C3)Cn1c-2c(C2CCCCC2)c2ccc(C(=O)NS(=O)(=O)c3nc[nH]n3)cc21` (stereo not shown), the concentration giving a half-maximal response (EC50) in assay [1] lay in the range of 4.2 to 500 nM. Also, the half-maximal inhibitory concentration (IC50) in assay [2] lay within 4.2 to 500 nM.
Turning to `C=CS(=O)(=O)NC(=O)c1ccc2c(C3CCCCC3)c3n(c2c1)CC1(C(=O)N2C4CCC2CN(C)C4)CC1c1cc(OC)ccc1-3` (stereo not shown), the EC50 in assay [1] was 4.2 to 500 nM. In assay [2], this compound yielded a concentration for half-maximal inhibition (IC50) of 4.2 to 500 nM.
In assay [1], `COc1ccc2c(c1)C1CC1(C(=O)N1C3CCC1CN(C)C3)Cn1c-2c(C2CCCCC2)c2ccc(C(=O)NS(=O)(=O)C=C(C)C)cc21` (stereo not shown) gave an EC50 of 4.2 to 500 nM. The same compound came in with a concentration for half-maximal inhibition (IC50) in assay [2] of 4.2 to 500 nM.
With `COc1ccc2c(c1)C1CC1(C(=O)N1C3CCC1CN(C)C3)Cn1c-2c(C2CCCCC2)c2ccc(C(=O)NS(=O)(=O)c3ncccn3)cc21` (stereo not shown), the EC50 in assay [1] was in the range of 4.2 to 500 nM. Besides, the IC50 in assay [2] lay within 4.2 to 500 nM.
Consider `COc1ccc2c(c1)C1CC1(C(=O)N1C3CCC1CN(C)C3)Cn1c-2c(C2CCCCC2)c2ccc(C(=O)NS(=O)(=O)c3nc(C)cc(C)n3)cc21` (stereo not shown), for which the EC50 in assay [1] lay within 4.2 to 500 nM. The compound further came in with an IC50 in assay [2] of 4.2 to 500 nM.
